This passage reports melting point results from a melting point compilation (Tetko et al.; mined from patent text by program, amines drawn as free bases though some values may be those of a salt).

What is called melting point is the temperature, or range, at which the solid turns liquid. For `O=C(CCCCCNCc1cc2nc(-c3cccc4[nH]ncc34)nc(N3CCOCC3)c2s1)NO`, the melting point was 128 to 130 °C. As for `CC(=O)Nc1cnc(Br)c(N)n1`, the figure is 218 to 221 °C; as for `c1ccc2c(c1)c(N1CCOCC1)nc1c(-c3nc(C4CC4)no3)ncn12`, 189 to 191 °C; as for `C[C@@H](n1cnc2cc(N3CCN(c4ccc(Cl)cc4)CC3)c(F)cc2c1=O)[C@](O)(Cn1cncn1)c1ccc(F)cc1F`, 130 to 133 °C. In the case of `O=c1c(-c2ccccc2)c[nH]cc1-c1ccccc1`, the melting point was more than 335 °C.

For `Cc1ccccc1-c1ccc(C(=O)N2Cc3ccc(C(=O)NCCc4cccc(Cl)c4)n3Cc3ccccc32)cc1C`, the melting point lay within 174 to 176 °C. `C=CCNc1c(C(=O)O)cnc2cn[nH]c12` gave a melting point of 240 to 242 °C. The figure for `O=C(Nc1ccccc1)N(Cc1ccc(Cl)cc1)C1CC2CCC1C2` (stereo unspecified) is 111 to 113 °C; for `CC(=O)Oc1ccc(Oc2cccc(C(=O)O)c2)cc1` it is 141 to 143 °C; for `O=[N+]([O-])c1ccc2c(c1)Sc1cc(I)ccc1N2` it is more than 250 °C.

Compound `O=C(O)c1cc(Cl)cc2c1O[C@@H]1CCCC[C@H]21` (relative stereo) had a melting point of 132 to 134 °C. `Cc1nc2c(c3c1[nH]c1ccccc13)C(=O)CC(c1ccccc1)C2` (stereo unspecified) came in with a melting point of 246 to 248 °C.

`CN1C(=O)C2(COc3cc4c(cc32)OCCO4)c2c(C(=O)NCc3ccccn3)cccc21` (stereo unspecified) gave a melting point of 214 to 215 °C.

The compound `Cc1nc(N)nc(N)c1-c1cc(C#N)ccc1Cl` gave a melting point of 239 to 241 °C.

Consider `O=C(NCCCCl)Nc1c(Cl)cccc1C(=O)O`, for which the melting point fell in the range of 124 to 125 °C. `CC(=O)CNC(=O)c1cc2c(nc(C)n2C)c2c1CCC1(Cc3ccccc3C1)N2` came in with a melting point of 222 to 223 °C.

As for `CCOC(=O)C1C(=O)N(c2ccccc2)c2cc3ccoc3cc21` (stereo unspecified), the melting point was in the range of 108 to 110 °C. `COC(=O)c1ccc(C(F)(F)F)cc1NC(C)=O` registered a melting point of 86 to 87 °C. In the case of `CS(=O)(=O)c1ccc(C(=O)C(=O)c2ccc(F)cc2)cc1`, the melting point was 174 to 175 °C. As to `CN(C)CCc1cccc2ccc(CS(=O)(=O)N3CCOCC3)cc12`, the melting point was in the range of 114 to 117 °C. `CCOC(=O)[C@H](CCSC)NC(=O)C1(Br)SC=C(Br)C1Br` (stereo partly specified): the melting point fell in the range of 80 to 82 °C.

As for `C#Cc1ccc2c(c1)N(c1ncnc3cc(OC)c(OC)cc13)CC2`, the melting point was in the range of 241 to 243 °C. In turn, `COc1cc(OC)nc(Sc2cccc(C)c2C(=O)O)n1` showed a melting point of 131 to 132 °C. As for `O=C1N(Cc2ccc(Cl)s2)c2ccccc2C12COc1ccc(OCc3ccccc3)cc12` (stereo unspecified), the melting point is 132 to 135 °C. Consider `Cc1cc(C)c(N2CCCc3c2nn(C)c3C(=O)O)c(Cl)c1`, for which the melting point is 248 °C. Compound `CCCc1nccn1-c1nc(-c2ccc(Cl)cc2)c(CCC(=O)O)o1` came in with a melting point of 174 to 175 °C. On to `O=S1(=O)CCC(=S)Nc2ccc(Cl)cc2C1c1ccccc1F` (stereo unspecified), for which the melting point turned out to be 226 °C.

Regarding `Cc1c(C2CCCC2)c(=O)oc2cc(OCc3nnn[nH]3)cc(OCc3nnn[nH]3)c12`, the melting point lay in the range of 248 to 252 °C. Take `CC(O)(CC(=O)O)CC(=O)O`: the melting point was 108 °C. For `COc1cccc(CO)c1C`, the melting point lay in the range of 63 to 64 °C.

Regarding `CNC(=O)NC1CC(C)(C)Cc2cc(C)cc(C)c21` (stereo unspecified), the melting point lay in the range of 196 to 197 °C. The figure for `O[C@@H]1CNC[C@H]1Oc1cccc(Cl)c1` (relative stereo) is 128 to 129 °C; for `CN1/C(=C\C(=S)NC(=O)c2ccccc2)C(C)(C)c2ccccc21` it is 108 to 110 °C. Take `CCOC(=O)c1cccc2nc3cc(C(=O)c4ccccc4)ccc3nc12`: the melting point lay in the range of 115 to 116 °C. As for `Cc1ccc(Sc2c(N)cc(C(=O)O)cc2SCc2ccccc2)cc1`, the figure is 177 to 179 °C; as for `COc1ccc(S(N)(=O)=O)cc1C(=O)C(C)N=[N+]=[N-]` (stereo unspecified), 113 to 114 °C.
